# Laboratory results as given in PubChem BioAssay AID1963985 (Molecular Pharmacology Branch, DTP, NCI, 2024).
# Test system: 252836-082-R-J2-PDC tumor spheroids, viability
# Test: Anticancer human tumor 252836-082-R-J2-PDC patient-derived head and neck squamous cell carcinoma cell line growth inhibition [PI3K]
# Details: spheroids with HUVEC and MSC; for IC50: curve of first compound; for viability, T/C: stronger effect = lower value
# Outline: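 We assembled tumor spheroids that included a stromal compartment of HUVEC and MSCs, then exposed them to targeted agents alone and together with PI3K pathway inhibitors. Concentration series descended by half-log from clinically achievable Cmax levels. Viability served as the endpoint.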
# [1] = second compound 0.0316 µM, first compound 0.0316 µM
# [2] = second compound 0.0316 µM, first compound 0.1 µM
# [3] = second compound 0.0316 µM, first compound 0.316 µM
# [4] = second compound 0.0316 µM, first compound 1 µM
# [5] = second compound 0.0316 µM, first compound 3.16 µM
# [6] = second compound 0.0316 µM, first compound 10 µM
# [7] = second compound 0.1 µM, first compound 0.0316 µM
# [8] = second compound 0.1 µM, first compound 0.1 µM
# [9] = second compound 0.1 µM, first compound 0.316 µM
# [10] = second compound 0.1 µM, first compound 1 µM
# [11] = second compound 0.1 µM, first compound 3.16 µM
# [12] = second compound 0.1 µM, first compound 10 µM
# [13] = second compound 0.316 µM, first compound 0.0316 µM
# [14] = second compound 0.316 µM, first compound 0.1 µM
# [15] = second compound 0.316 µM, first compound 0.316 µM
# [16] = second compound 0.316 µM, first compound 1 µM
# [17] = second compound 0.316 µM, first compound 3.16 µM
# [18] = second compound 0.316 µM, first compound 10 µM
# [19] = second compound 1 µM, first compound 0.0316 µM
# [20] = second compound 1 µM, first compound 0.1 µM
# [21] = second compound 1 µM, first compound 0.316 µM
# [22] = second compound 1 µM, first compound 1 µM
# [23] = second compound 1 µM, first compound 3.16 µM
# [24] = second compound 1 µM, first compound 10 µM
# [25] = second compound 3.16 µM, first compound 0.0316 µM
# [26] = second compound 3.16 µM, first compound 0.1 µM
# [27] = second compound 3.16 µM, first compound 0.316 µM
# [28] = second compound 3.16 µM, first compound 1 µM
# [29] = second compound 3.16 µM, first compound 3.16 µM
# [30] = second compound 3.16 µM, first compound 10 µM
# [31] = second compound 10 µM, first compound 0.0316 µM
# [32] = second compound 10 µM, first compound 0.1 µM
# [33] = second compound 10 µM, first compound 0.316 µM
# [34] = second compound 10 µM, first compound 1 µM
# [35] = second compound 10 µM, first compound 3.16 µM
# [36] = second compound 10 µM, first compound 10 µM
# 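Further: spheroids exposed to agents for seven days before readout.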
# 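Wherever viability, T/C is given: percent of vehicle DMSO control viability so 100% = untreated growth.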
smiles,measurement,setting,value
C#Cc1c(F)ccc2cc(O)cc(-c3ncc4c(N5CC6CCC(C5)N6)nc(OCC56CCCN5CC(F)C6)nc4c3F)c12 (stereo unspecified) + CC(Nc1ncnc2nc[nH]c12)c1cc2cccc(Cl)c2c(=O)n1-c1ccccc1,IC50,second compound 0.0316 µM,> 10 µM
same,IC50,second compound 0.1 µM,> 10 µM
same,IC50,second compound 0.316 µM,> 10 µM
same,IC50,second compound 1 µM,> 10 µM
same,IC50,second compound 3.16 µM,> 10 µM
same,IC50,second compound 10 µM,3.37 µM
same,"viability, T/C",[1],90%
same,"viability, T/C",[2],78.4%
same,"viability, T/C",[3],82.8%
same,"viability, T/C",[4],86.4%
same,"viability, T/C",[5],82%
same,"viability, T/C",[6],63.6%
same,"viability, T/C",[7],90.8%
same,"viability, T/C",[8],87%
same,"viability, T/C",[9],90.8%
same,"viability, T/C",[10],97.7%
same,"viability, T/C",[11],82.6%
same,"viability, T/C",[12],64.8%
same,"viability, T/C",[13],96.1%
same,"viability, T/C",[14],92.9%
same,"viability, T/C",[15],90.1%
same,"viability, T/C",[16],87.5%
same,"viability, T/C",[17],73.5%
same,"viability, T/C",[18],65.4%
same,"viability, T/C",[19],83.3%
same,"viability, T/C",[20],75.7%
same,"viability, T/C",[21],88.6%
same,"viability, T/C",[22],78.4%
same,"viability, T/C",[23],88.4%
same,"viability, T/C",[24],66.8%
same,"viability, T/C",[25],84.7%
same,"viability, T/C",[26],67.6%
same,"viability, T/C",[27],73.7%
same,"viability, T/C",[28],75%
same,"viability, T/C",[29],69%
same,"viability, T/C",[30],62.6%
same,"viability, T/C",[31],54.5%
same,"viability, T/C",[32],58.2%
same,"viability, T/C",[33],53.9%
same,"viability, T/C",[34],49.4%
same,"viability, T/C",[35],55.6%
same,"viability, T/C",[36],44.9%
CC(Cn1ccc(-c2ccc(C#N)c(Cl)c2)n1)NC(=O)c1cc(C(C)O)[nH]n1 (stereo unspecified) + CC(Nc1ncnc2nc[nH]c12)c1cc2cccc(Cl)c2c(=O)n1-c1ccccc1,IC50,second compound 0.0316 µM,> 10 µM
same,IC50,second compound 0.1 µM,> 10 µM
same,IC50,second compound 0.316 µM,> 10 µM
same,IC50,second compound 1 µM,> 10 µM
same,IC50,second compound 3.16 µM,> 10 µM
same,IC50,second compound 10 µM,> 10 µM
same,"viability, T/C",[1],105%
same,"viability, T/C",[2],78.9%
same,"viability, T/C",[3],96.6%
same,"viability, T/C",[4],87%
same,"viability, T/C",[5],81.7%
same,"viability, T/C",[6],76.3%
same,"viability, T/C",[7],86.8%
same,"viability, T/C",[8],89.3%
same,"viability, T/C",[9],82.6%
same,"viability, T/C",[10],83%
same,"viability, T/C",[11],94.5%
same,"viability, T/C",[12],70.2%
same,"viability, T/C",[13],83.2%
same,"viability, T/C",[14],78.5%
same,"viability, T/C",[15],88.9%
same,"viability, T/C",[16],88.8%
same,"viability, T/C",[17],85.5%
same,"viability, T/C",[18],85.9%
same,"viability, T/C",[19],92.2%
same,"viability, T/C",[20],76.3%
same,"viability, T/C",[21],89.6%
same,"viability, T/C",[22],80.5%
same,"viability, T/C",[23],77%
same,"viability, T/C",[24],70.3%
same,"viability, T/C",[25],74%
same,"viability, T/C",[26],73.7%
same,"viability, T/C",[27],79.2%
same,"viability, T/C",[28],72.5%
same,"viability, T/C",[29],75%
same,"viability, T/C",[30],74.2%
same,"viability, T/C",[31],60.9%
same,"viability, T/C",[32],55.3%
same,"viability, T/C",[33],73.4%
same,"viability, T/C",[34],55.4%
same,"viability, T/C",[35],65.4%
same,"viability, T/C",[36],56.8%
CC1(C)CCC(Nc2ncc(C(F)(F)F)c(-c3c[nH]c4c(P(C)(C)=O)c(C#N)ccc34)n2)CN1 (stereo unspecified) + CC(Nc1ncnc2nc[nH]c12)c1cc2cccc(Cl)c2c(=O)n1-c1ccccc1,IC50,second compound 0.0316 µM,< 0.0316 µM
same,IC50,second compound 0.1 µM,< 0.0316 µM
same,IC50,second compound 0.316 µM,< 0.0316 µM
same,IC50,second compound 1 µM,< 0.0316 µM
same,IC50,second compound 3.16 µM,< 0.0316 µM
same,IC50,second compound 10 µM,< 0.0316 µM
same,"viability, T/C",[1],31.1%
same,"viability, T/C",[2],26.6%
same,"viability, T/C",[3],28.6%
same,"viability, T/C",[4],32.2%
same,"viability, T/C",[5],34.7%
same,"viability, T/C",[6],4.13%
same,"viability, T/C",[7],34.2%
same,"viability, T/C",[8],27.4%
same,"viability, T/C",[9],31.6%
same,"viability, T/C",[10],26.4%
same,"viability, T/C",[11],36.9%
same,"viability, T/C",[12],5.65%
same,"viability, T/C",[13],32.4%
same,"viability, T/C",[14],32.9%
same,"viability, T/C",[15],27.7%
same,"viability, T/C",[16],30.1%
same,"viability, T/C",[17],33.8%
same,"viability, T/C",[18],4.38%
same,"viability, T/C",[19],27.9%
same,"viability, T/C",[20],31.8%
same,"viability, T/C",[21],32.4%
same,"viability, T/C",[22],28.7%
same,"viability, T/C",[23],33.4%
same,"viability, T/C",[24],4.12%
same,"viability, T/C",[25],26.3%
same,"viability, T/C",[26],26.2%
same,"viability, T/C",[27],28%
same,"viability, T/C",[28],31.9%
same,"viability, T/C",[29],25.9%
same,"viability, T/C",[30],3.79%
same,"viability, T/C",[31],27.2%
same,"viability, T/C",[32],21.5%
same,"viability, T/C",[33],26%
same,"viability, T/C",[34],23%
same,"viability, T/C",[35],22.6%
same,"viability, T/C",[36],1.83%
